In test [1] the test system is Pityrosporum ovale. Kind of test: Direct addition method, solid compound in Sabouraud dextrose agar. Type of test: cell-based. Particulars: 4 mg/mL of agar; 12th day after inoculation. On the set-up: key: +++: Maximum Fungal Growth; ++: Moderate Fungal Growth; +: Minimum Fungal Growth; +/−: Very little Fungal Growth; −: No Fungal Growth. The method, boiled down:
(§1)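 Fungal growth read at day 12; scored every 2nd day over 10-12 days at 25-28° C. Compound added as solid to molten Sabouraud dextrose agar (45° C.), final 4 mg/ml; agar slanted, then inoculated.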

The subject of the next test is Trichophyton rubrum. The test is described as above. Type of test: cell-based. Details: key: +++: Maximum Fungal Growth; ++: Moderate Fungal Growth; +: Minimum Fungal Growth; +/−: Very little Fungal Growth; −: No Fungal Growth. Conditions: 4 mg/mL of agar; 12th day after inoculation. The method, boiled down: as §1
A further test has as its system Epidermophyton floccosum. The test is described as above. Type of test: cell-based. Details: key: +++: Maximum Fungal Growth; ++: Moderate Fungal Growth; +: Minimum Fungal Growth; +/−: Very little Fungal Growth; −: No Fungal Growth. Conditions: 4 mg/mL of agar; 12th day after inoculation. The gist of the method: as §1
Test [2] deals with Microsporum canis. The test is described as above. Type of test: cell-based. Details: key: +++: Maximum Fungal Growth; ++: Moderate Fungal Growth; +: Minimum Fungal Growth; +/−: Very Little Fungal Growth; −: No Fungal Growth. Conditions: 4 mg/mL of agar; 12th day after inoculation. How it is done: Direct addition method. Sabouraud dextrose agar was prepared according to the manufacturer's instructions and 5.0 ml was dispensed in each 100×25 mm tube. The tubes were autoclaved. To each tube containing 5.0 ml of liquid agar at 45° C., 20 mg of solid test compound was added, to give a final concentration of 4 mg/ml. The agar was solidified in slants. The fungal cultures were then innoculated. The slants were incubated at 25-28 ° C. for 10-12 days, and the growth of the fungus was recorded every second day. The results in Table 2 indicate growth at the 12th day of inoculation.

In another test the test system is Microsporum audouinni. The description is as above. Type of test: cell-based, Microsporum audouinii. Details: key to Fungal growth: +++: Maximum Fungal Growth; ++: Moderate Fungal Growth; +: Minimum Fungal Growth; +/−: Very little Fungal Growth; −: No Fungal Growth. Conditions: 4 mg/mL of agar; 12th day after inoculation. The method, boiled down:
as §1

In test [3] the test system is Microsporum canis. The test is described as above. Type of test: cell-based. Particulars: against Microsporum canis. The gist of the method:
as §1

Test [4] deals with Pityrosporum ovale. The test can be described thus: Direct addition into the Pityrosporum agar. Type of test: cell-based. Details: key to Pityrosporum ovale growth: +++: Maximum Growth; ++: Moderate Growth; +: Minimum Growth; +/−: Very Little Growth; −: No Growth. Particulars: 4 mg/ml in the agar; 18 hours after inoculation. How it is done:
Direct addition method. Sabouraud dextrose agar was prepared according to the manufacturer's instructions and 5.0 ml was dispensed in each 100×25 mm tube. The tubes were autoclaved. To each tube containing 5.0 ml of liquid agar at 45° C., 20 mg of solid test compound was added, to give a final concentration of 4 mg/ml. The agar was solidified in slants. The fungal cultures were then innoculated. […]

SMILES strings stand for the structures.

`C=C(C)[C@@H]1CC[C@]2(COC(=O)CN)CC[C@]3(C)[C@H](CC[C@@H]4[C@@]5(C)CC[C@H](OC(=O)CN)C(C)(C)[C@@H]5CC[C@]43C)[C@@H]12` [Betulin-3,28-diglycine]: the Fungal growth entry is reported as “−” with Pityrosporum ovale [1]; “+” in the test with Trichophyton rubrum; “−” in the test with Epidermophyton floccosum; “+/−” with Microsporum canis [2]; “+” with Microsporum audouinni. Besides, the “best anti-fungal or anti-yeast activity by the direct addition method” value in the test with Microsporum canis [3] is on record as “against Microsporum canis”. Besides, the Pityrosporum ovale growth result in the test with Pityrosporum ovale [4] is on record as “+”.

These data come from US6642217B2, “Triterpenes having human antifungal and antiyeast activity” (Naturtek, LLC, priority 2000, dated 2003).
